Series [1] can be described thus: Plasma stability, human plasma. Conditions: for half-life at 1 µM / % PCR (at 60 minutes): 37° C., 1 μM; for % PCR (at 60 minutes): parent compound remaining at 60 minutes. In kind it is in vitro ADME. On the procedure: (§1) Each test compound and assay control (final concentration of 1 μM) were incubated with human plasma or rat plasma at 37° C. for 0.5, 5, 30 and 60 minutes. The reaction was quenched with ice-cold acetonitrile containing internal standard (cetirizine/tolbutamide/telmisartan) following incubation.

Series [2] can be described thus: Intestinal microsomal stability, rat. In kind it is in vitro ADME. Conditions: for half-life at 1 µM / microsomal CLint at 1 µM: rat intestinal microsomes 1 mg/mL protein, NADPH, 37° C.; for microsomal CLint at 1 µM: read-out: CLint (μL/min/mg protein). On the procedure: (§2) Each test compound and assay control (final concentration of […]) were incubated with intestinal microsomes (final protein concentration of 1 mg/mL) from rats, dogs or humans at 37° C. in the presence of NADPH for 0.5, 5, 10, 15, 30 and 60 minutes. The reaction was terminated by adding ice-cold acetonitrile containing internal standard (cetirizine/tolbutamide/telmisartan) at each time point following incubation. Samples were then centrifuged at 4000 rpm for 10 minutes and the supernatant was analyzed by LC-MS/MS. The in vitro half-life (t1/2) and intrinsic clearance (CLint) were calculated for the test compounds and the assay control.

Series [3] can be described thus: Liver microsomal stability, dog. Conditions: for Hepatic Extraction Ratio / Predicted Hepatic CL: dog liver microsomes 0.5 mg/mL, 1 μM, NADPH. The format is in vitro ADME. On the procedure:
(§3) Each test compound and assay control (final concentration of 1 μM) were incubated with liver microsomes (final protein concentration of 0.5 mg/mL) from rats, dogs or humans at 37° C. in the presence of NADPH for 0.5, 5, 10, 15, 30 and 60 min. The reaction was terminated by adding ice-cold acetonitrile containing internal standard at each time point following incubation. The samples were then centrifuged at 4000 rpm for 10 minutes and the supernatant was analyzed by LC-MS/MS. The predicted hepatic clearance and the hepatic extraction ratio were calculated for the test compounds and the assay control.

A short description of series [4]: Liver microsomal stability, rat. The format is in vitro ADME. Conditions: for Hepatic Extraction Ratio / Predicted Hepatic CL: rat liver microsomes 0.5 mg/mL, 1 μM, NADPH. On the procedure:
as §3

A short description of series [5]: Intestinal microsomal stability, human. The format is in vitro ADME. Conditions: for half-life at 1 µM / microsomal CLint at 1 µM: human intestinal microsomes 1 mg/mL protein, NADPH, 37° C.; for microsomal CLint at 1 µM: read-out: CLint (μL/min/mg protein). On the procedure: as §2
For series [6] the following is noted: rat; for AUClast / Cmax / F (%) / Tmax / t1/2 / AUClast (ng * h/mL) / Cmax (ng/mL) / Median Tmax: male, Sprague-Dawley; for AUClast / Cmax / F (%) / Tmax / t1/2 / AUClast (ng * h/mL) / Cmax (ng/mL) / Median Tmax / increase in AUC from 3 mg/kg to 14 mg/kg (in words) / release of nicorandil in vivo (in words): po.
A short description of series [7]: Intestinal microsomal stability, dog. In kind it is in vitro ADME. Conditions: for half-life at 1 µM / microsomal CLint at 1 µM: dog intestinal microsomes 1 mg/mL protein, NADPH, 37° C.; for microsomal CLint at 1 µM: read-out: CLint (μL/min/mg protein). On the procedure: as §2
Series [8] in a line: Liver microsomal stability, human. The format is in vitro ADME. Conditions: for Hepatic Extraction Ratio / Predicted Hepatic CL: human liver microsomes 0.5 mg/mL, 1 μM, NADPH. On the procedure:
as §3

Series [9] can be described thus: Plasma stability, rat plasma. In kind it is in vitro ADME. Conditions: for half-life at 1 µM / % PCR (at 60 minutes): 37° C., 1 μM; for % PCR (at 60 minutes): parent compound remaining at 60 minutes. On the procedure: as §1
The nature of series [10]: Pharmacokinetic study in rats, single oral dose. Conditions: rat, 0.25% sodium CMC.
The mark [11] stands for this setting: compared to nitrate salt of compound 8.

The term half-life denotes how long it takes for the measured level to halve. One may read the Cmax as the maximum level reached in the sampled fluid or tissue. Usually Tmax stands for the time from dosing to the highest level.

Read-outs that look alike come from different tables or passages of the source.

For the molecule `CCCCCCCCCCCC(=O)OC[n+]1cccc(C(=O)NCCO[N+](=O)[O-])c1.[Cl-]` [Compound 10], the half-life at 1 µM in [1] is 1.23 min; in series [2], 26 min; in series [5], 24 min; in [7] it was 47 min; in series [9], 1.59 min. Also, the “% PCR (at 60 minutes)” value in [1] and in series [9] was 0% throughout. Also, the “release in plasma (in words)” value in series [1] (setting [11]) and in series [9] (setting [11]) was “rapidly released” each time. Further, the figures for the microsomal CLint at 1 µM in series [2], in series [5] and in series [7] were 27 µL/min/mg, 29 µL/min/mg and 15 µL/min/mg, respectively. Moreover, the “clearance in intestinal microsomes (in words)” value in series [2] (rat intestinal microsomes, compared to nitrate salt of compound 8 and compounds 11 and 13) is listed as “high clearance”; in [5] (human intestinal microsomes, compared to nitrate salt of compound 8 and compounds 11 and 13) it was “high clearance”; in series [7] (dog intestinal microsomes, compared to nitrate salt of compound 8 and compounds 11 and 13), “high clearance”. Also, the “Hepatic Extraction Ratio” value in series [3] came out at 1.0; in [4], 0.84; in series [8], 0.90. The “Predicted Hepatic CL” value was 4 mL/min/kg in [3], 46 mL/min/kg in series [4] and 19 mL/min/kg in series [8]. Further, the “stability in liver microsomes (in words)” value was “unstable” in [3] (dog liver microsomes, compared to nitrate salt of compound 8); “unstable” in series [4] (rat liver microsomes, compared to nitrate salt of compound 8); “unstable” in [8] (human liver microsomes, compared to nitrate salt of compound 8). Further, the “AUClast” value in series [6] (in vivo, 3 mg/kg) turned out to be 5513 ng·h/mL. Besides, the “Cmax” value in [6] (in vivo, 3 mg/kg) amounted to 2226 ng/mL; in series [6] (in vivo, 14 mg/kg) it was 6297 ng/mL. The “F (%)” value in [6] (in vivo, 3 mg/kg) is given as 67%; in series [6] (in vivo, 14 mg/kg), 97%. Besides, the “Tmax” value turned out to be 30 min in [6] (in vivo, 3 mg/kg) and 240 min in series [6] (in vivo, 14 mg/kg). For the same molecule, the “t1/2” value in series [6] (in vivo, 3 mg/kg) was 244 min; in series [6] (in vivo, 14 mg/kg), 164 min. The “AUClast (ng * h/mL)” value in series [6] (in vivo, 3 mg/kg, pH 4.5) was 26,838 ng * h/mL; in series [6] (in vivo, 14 mg/kg), 36,526 ng * h/mL. Moreover, the “Cmax (ng/mL)” value in [6] (in vivo, 3 mg/kg, pH 4.5) is on record as 12,446 ng/mL. For the same molecule, the “Median Tmax” value in [6] (in vivo, 3 mg/kg, pH 4.5) is 15 min. The “oral bioavailability of nicorandil after oral dosing (in words)” value in series [6] (in vivo) is “high”. For the same molecule, in [6] (in vivo), the “increase in AUC from 3 mg/kg to 14 mg/kg (in words)” value is “more than dose proportional”. Moreover, in series [6], the “release of nicorandil in vivo (in words)” value was “release nicorandil in vivo”.
`CCC(C)(C)C(=O)OC[n+]1cccc(C(=O)NCCO[N+](=O)[O-])c1.[Cl-]` [Compound 11]: in [2], the half-life at 1 µM is more than 60 min and the microsomal CLint at 1 µM stood at 8 µL/min/mg. Further, in series [5], the half-life at 1 µM was more than 60 min and the microsomal CLint at 1 µM was less than 6 µL/min/mg. Moreover, in series [6] (in vivo, 3 mg/kg), the “AUClast” value amounted to 2289 ng·h/mL, the “Cmax” value came to 1171 ng/mL, the “F (%)” value was determined as 28% and the “Tmax” value came out at 15 min. In [6] (in vivo, 3 mg/kg, pH 4.5), the “AUClast (ng * h/mL)” value is recorded as 22,632 ng * h/mL, the “Cmax (ng/mL)” value is given as 15,223 ng/mL and the “Median Tmax” value is 15 min. For the same molecule, in [6] (in vivo, 14 mg/kg), the “AUClast” value is 27422 ng·h/mL, the “Cmax” value turned out to be 6245 ng/mL, the “F (%)” value is 72% and the “Tmax” value stood at 15 min. Also, the “increase in AUC from 3 mg/kg to 14 mg/kg (in words)” value in series [6] (in vivo) is “more than dose proportional”. Further, in [6], the “release of nicorandil in vivo (in words)” value was “release nicorandil in vivo”. Moreover, in [7], the half-life at 1 µM is more than 60 min and the microsomal CLint at 1 µM was 9 µL/min/mg.
With `Cc1oc(=O)oc1C[n+]1cccc(C(=O)NCCO[N+](=O)[O-])c1.[Cl-]` [Compound 12], in series [6] (in vivo, 3 mg/kg, pH 4.5), the “AUClast” value was 8893 ng·h/mL, the “Cmax” value came out at 4065 ng/mL and the “Median Tmax” value was found to be 30 min.
With `O=C(NCCO[N+](=O)[O-])c1ccc[n+](COC(=O)N2CCCC2C(=O)O)c1.[Cl-]` (stereo not drawn) [Compound 13], the half-life at 1 µM in [2], in [5] and in series [7] was more than 60 min each time. In addition, the microsomal CLint at 1 µM in [2], in series [5] and in series [7] was less than 6 µL/min/mg throughout.
With `CCOC(=O)[C@H](CCc1ccccc1)N[C@@H](C)C(=O)N1CCC[C@H]1C(=O)O` [Enalapril], in series [9], the half-life at 1 µM was found to be 18.9 min and the “% PCR (at 60 minutes)” value is 11.2%.
With `O=C(NCCO[N+](=O)[O-])c1cccnc1` [Nicorandil], the half-life at 1 µM in series [1] and in series [9] was more than 60 min each time. For the same molecule, the “% PCR (at 60 minutes)” value in series [1] is reported as 109%; in [9] it was 114%.
As for `CC(C)[N+](C)(CCOC(=O)C1c2ccccc2Oc2ccccc21)C(C)C` [Propantheline Bromide], in series [1], the half-life at 1 µM was found to be 21.3 min and the “% PCR (at 60 minutes)” value stood at 9.2%.
With `C[C@H](NC(=O)OC[n+]1cccc(C(=O)NCCO[N+](=O)[O-])c1)C1CCCCC1.O=[N+]([O-])[O-]` [reference compound], the “release of nicorandil in vivo (in words)” value in series [10] is recorded as “release nicorandil in vivo”. Besides, the half-life at 1 µM in series [1] was 31.2 min; in [2], more than 60 min; in [5] it was more than 60 min; in [7] it was more than 60 min; in series [9] it was 38.2 min. For the same molecule, the “% PCR (at 60 minutes)” value in series [1] is reported as 28.7%; in series [9] it was 36.2%. The microsomal CLint at 1 µM is less than 6 µL/min/mg in series [2], 9 µL/min/mg in series [5] and less than 6 µL/min/mg in series [7]. Moreover, the entries for the “Hepatic Extraction Ratio” value in [3], in series [4] and in series [8] were 0.84, more than 0.89 and 0.71, respectively. Besides, the “Predicted Hepatic CL” value is recorded as 26 mL/min/kg in [3], more than 49 mL/min/kg in series [4] and 15 mL/min/kg in [8].

The values above are taken from patent publication US20250145571A1, “AMINO ACID PRODRUGS OF NICORANDIL” (Unicycive Therapeutics, Inc., priority 2023, published 2025).
